Converted amounts (≈) assume the structure as drawn.
Tested on: cells originated from human mouth tumor (KB-cells)
Experiment: Test on inhibition of proliferation using cells originated from human mouth tumor (KB-cells)
Format: cell-based
Conditions: 96 h, stationary culture at 37°C for 4 days, Trypan Blue staining, surviving cell number relative to control
Method: The cells originated from human mouth tumor (KB-cells) were added to Eagle's MEM culture solution containing 10% bovine fetal serum, the number of cells in the culture solution was adjusted to […] cells/ml, a solution in ethanol of the compound of the present invention was added to give a concentration of 5µg/ml or less (3 compounds) and the mixture subjected to stationary culture at 37°C for 4 days. As a control, a culture solution containing 0.1% of ethanol was similarly cultured. After the culture, the cells were
stained by the Trypan Blue staining method, and the surviving cell number was measured to determine the IC50 value from the degree of inhibition relative to the control. Compounds are identified by the Example (described hereinafter) in which they are prepared.

SMILES	IC50
CCCCC[C@H](O)/C=C/[C@H]1C(=O)C=C[C@@H]1C/C=C\CCCCOC(N)=O [Compound 1(c)]	1.1 µg/mL (≈ 3.03 µM)
CCCCC[C@H](O)/C=C/[C@H]1C(=O)C[C@H](O)[C@@H]1C/C=C\CCCCOC(=O)C=C(C)C [Compound 1, 1-O-(3,3-dimethylacryloyl)-PGD2 alcohol]	2.1 µg/mL (≈ 4.99 µM)
CCCCCC=CC=C1C(=O)C=C[C@@H]1C/C=C\CCCCO [Compound 2, (5Z,14EZ)-11-oxoprosta-5,9,12,14-tetraen-1-ol]	< 1 µg/mL
CCCCCC=CC=C1C(=O)C=CC1CC=CCCCCOC(C)=O (stereo not drawn) [Compound 3, (5Z,14EZ)-1-0-acetyl-11-oxoprosta-5,9,12,14-tetraen-l-ol]	1.6 µg/mL (≈ 4.64 µM)

From patent EP0171441A1, “Prostaglandin analogues, processes for their preparation and compositions containing them” (ONO PHARMACEUTICAL CO., LTD., priority 1984, dated 1986)
